The text below walks through data of publication PMC7493962, “Structure-based inhibitors targeting the alpha-helical domain of the Spiroplasma melliferum histone-like HU protein” (Scientific Reports, 2020).

In brackets after ≈: the same amount, converted by molar mass. Read-outs that look alike come from different tables or passages of the source.

For one data set, the target named is HUMgal (Mycoplasmoides gallisepticum, UniProt A0A0F6CKR5). The data set can be described thus: EMSA, inhibition of HUMgal DNA binding. The arrangement: species or system Mycoplasma gallisepticum.
In the next data set the target is HUSpm (Spiroplasma melliferum, UniProt A0ABX5UAT3). The data set can be described thus: biochemical. In kind it is binding. The procedure:
In silico screening by molecular docking and filtering was performed to identify compounds interacting with the core region of the DNA-binding saddle-like domain of HU proteins (Fig. 1A) previously characterized in[35]. High-resolution spatial structure of HUSpm (PDB ID 5L8Z[9]) was chosen as a target for virtual screening of one million compounds from the Vitas-M laboratory library collection (https://vitasmlab.biz/). The screening (see "Methods" for a description) identified a set of five compounds (Supplementary Table S1), further evaluation of which was carried out by an electromobility shift assay (EMSA) performed as described in[5]. In the assay, formation of DNA–protein complexes retards migration of dye-labeled DNA-duplexes during non-denaturing PAGE that gives a shifted fluorescent band. The presence of an inhibitor prevents complex formation and corresponding band shifting.
All oligonucleotides were synthesized by Evrogen (Moscow, Russia).
For 48 bp DNA duplexes, 8% PAAG was used.

A further data set addresses HUSpm_K35T (Spiroplasma melliferum, UniProt A0ABX5UAT3, K35T).
A further data set concerns the target HUSpm_R57A (Spiroplasma melliferum, UniProt A0ABX5UAT3, R57A). The following applies: read-out: IC50 against HUSpm mutant HUSpm_R57A; EMSA with DS24a; mean ± SD from three runs; 200 mM HUSpm_R57A as printed.
Data set [1] relates to HUSpm mutants (F14A, F29A, F31A). Kind of data set: EMSA, inhibitor evaluation on HUSpm mutants F14A, F29A, F31A. In kind it is binding, Spiroplasma melliferum. As to conditions: data not shown.
The test system of the next data set is S. melliferum KC3. The data set can be described thus: Broth micro-dilution test, MIC. The format is cell-based, Spiroplasma melliferum. The following applies: S. melliferum growth in culture, phenol red colour change, three determinations. The text has this:
(§1) Since HU proteins are known to be essential for mycoplasma cell viability, [32], we assessed the effects of the inhibitors on M. gallisepticum and S. melliferum growth in culture. […] The growth of metabolizing organisms causes a change in the pH of the medium leading to a visible color change due to the presence of phenol red in the medium. When the growth of bacteria is inhibited, color change is not observed. The MIC is the lowest inhibitor concentration that prevents the color change at the time when the color change has developed in control (untreated) samples.
(§2) The S. melliferum KC3 strain was kindly provided by Prof. G. Wroblewsky of the University of Rennes, France. The M. gallisepticum S6 strain was provided by Prof. S. N. Borkhsenius, Institute of Cytology, St. Petersburg, Russian Academy of Science. The bacteria were cultivated as described in[62] without any specific aeration in covered flasks, for less than five passage. M. gallisepticum S6 was cultivated in a modified Edward’s liquid medium (tryptose (20 g/l), Tris (3 g/l), NaCl (5 g/l), KCl (1.3 g/l), yeast dialysate (5%), heat inactivated (56 °C–30 min) horse serum (6%), glucose (0.5%) and penicillin 300U/ml, pH 7.5) at 37 °C for 20 h after 1:100 dilution. […]
(Dilution methods test growth across graded concentrations, often in twofold steps.)

The nature of data set [2]: Solubility (stated in words). The format is physicochemical. As to conditions: water.
The next data set has as its system M. gallisepticum S6. The data set can be described thus: Broth micro-dilution test, MIC. In kind it is cell-based, Mycoplasma gallisepticum. The following applies: M. gallisepticum growth in culture, phenol red colour change, three determinations.
Description: as §1, §2

A further data set has as its target HUSpm_K80A (Spiroplasma melliferum, UniProt A0ABX5UAT3, K80A). As to conditions: read-out: IC50 against HUSpm mutant HUSpm_K80A; EMSA with DS24a; mean ± SD from three runs; 100 nM protein. For orientation: In EMSA bound probe runs differently from free probe, usually more slowly.
In the next data set the target is HUSpm_K88A (Spiroplasma melliferum, UniProt A0ABX5UAT3, K88A). As to conditions: read-out: IC50 against HUSpm mutant HUSpm_R88A (so in the source); EMSA with DS24a; mean ± SD from three runs; 100 nM protein.
Data set [3] deals with T1, HUEc (HUα-homodimer from E. coli) (Escherichia coli, UniProt P0ACF0).
T1 construct: made in house
The data set can be described thus: biochemical. The format is binding.
Description: (§3) One protein was from mycoplasma M. gallisepticum (HUMgal) and another was HUα-homodimer from E. coli (HUEc). […] To assess the effect of the three BDFs on DNA binding properties of the three HU proteins, increasing concentrations of inhibitors were mixed with preset DNA–protein complexes and EMSA was performed and quantified as described in the Methods.
(§4) Binding of HU proteins to DNA was analyzed by electrophoretic mobility shift assays (EMSA) performed as described previously[5]. Different amounts of the HU proteins (30 nM HUSpm and HUSpm_K35T, 60 nM HUMgal and HUEc, 100 nM HUSpm_K80A and HUSpm_K88A, and 200 mM HUSpm_R57A) were incubated with DNA (10 nM) in 10 μl of the binding buffer (20 mM Tris–HCl pH 8.0, 7% glycerol, and 150 mM of NaCl) for 10 min. Then, the samples were loaded to pre-runned (125 V, 30 min) 10% non-denaturing PAAG, buffered with 100 mM Tris–borate, and electrophoretically separated (125 V, 90 min). […] Gels were visualized using BIO RAD Faros FX Molecular Imager (532 nm EX, 605 nm BP), and quantification was performed using Quantity One software.
(§5) To evaluate the effects of inhibitors, 1 μl volumes of serial dilutions of tested compounds or DMSO were added to the preformed protein-DNA complexes. After five minute incubation, the assay was carried out as described above. Inhibition curves and IC50 values were obtained using GraphPad Prism 5 software.

Data set [4] concerns HUSpm (Spiroplasma melliferum), PDB:5L8Z_1. The data set can be described thus: EMSA. As to conditions: EMSA: 20 mM Tris-HCl pH 8.0, 150 mM NaCl, 7% glycerol, 10 nM DNA, 10 min, temperature not stated; NMR: 50 mM sodium phosphate pH 7.2, 0.1 mM NaN3, 30 C.
Where [5] appears, read: EMSA with DS24a, average ± SD from three runs, read-out: IC50, inhibition of HUMgal DNA-binding.
The mark [6] stands for this setting: EMSA with DS24a duplex, average±SD from three runs, read-out: IC50, half-maximal inhibitory concentration of HUSpm-DNA complex formation.
Where [7] appears, read: EMSA with DS48 duplex, average±SD, n=3, read-out: IC50, half-maximal inhibitory concentration of HUSpm-DNA complex formation.

Chain of HUMgal (A0A0F6CKR5 entry or part of it): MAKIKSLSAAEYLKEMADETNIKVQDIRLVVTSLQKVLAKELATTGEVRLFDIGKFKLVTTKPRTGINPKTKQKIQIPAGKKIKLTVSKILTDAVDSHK
T1 sequence (P0ACF0 whole entry): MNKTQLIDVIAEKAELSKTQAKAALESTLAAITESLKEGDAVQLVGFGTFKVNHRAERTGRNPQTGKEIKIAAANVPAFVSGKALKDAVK
Description for HUMgal: as §3, §4, §5
Description for HUSpm_K35T: Thus, previously obtained HUSpm mutants (F14A, F29A, F31A and K35T) were employed for inhibitor evaluation.
(§6) Binding of HU proteins to DNA was analyzed by electrophoretic mobility shift assays (EMSA) performed as described previously[5]. Different amounts of the HU proteins (30 nM HUSpm and HUSpm_K35T, 60 nM HUMgal and HUEc, 100 nM HUSpm_K80A and HUSpm_K88A, and 200 mM HUSpm_R57A) were incubated with DNA (10 nM) in 10 μl of the binding buffer (20 mM Tris–HCl pH 8.0, 7% glycerol, and 150 mM of NaCl) for 10 min. Then, the samples were loaded to pre-runned (125 V, 30 min) 10% non-denaturing PAAG, buffered with 100 mM Tris–borate, and electrophoretically separated (125 V, 90 min). […] Gels were visualized using BIO RAD Faros FX Molecular Imager (532 nm EX, 605 nm BP), and quantification was performed using Quantity One software. The dissociation constants (Kd) were calculated as described earlier[16].
as §5
Description for HUSpm_K80A: as §6, §5
Description for HUSpm_K88A: as §6, §5
Description for HUSpm_R57A: as §6, §5

In the case of “4,5'-[4,4'-(9H-fluorene-9,9-diyl)bis(4,1-phenylene)]-bis(oxy)-bis(oxomethylene)-bis[2-(m-tolylcarbamoyl)-benzoic acid] [BDF5]”, the IC50 was 5.9 ± 0.8 µM at HUMgal (setting [5]) and 6.3 ± 0.7 µM on HUSpm (setting [6]).
Regarding `O=C(Oc1ccc(C2(c3ccc(OC(=O)c4ccc(C(=O)O)c(C(=O)O)c4)cc3)c3ccccc3-c3ccccc32)cc1)c1ccc(C(=O)O)c(C(=O)O)c1` [BDF1], on HUSpm (100 μM compound, DS48), the “Inhibition of HUSpm-DNA binding, first round of EMSA” value is recorded as “inhibits HUSpm-DNA binding”. Moreover, the values for the IC50 at HUSpm (setting [6]) and on HUSpm (setting [7]) were 6.2 ± 0.5 µM and 6.5 ± 0.9 µM, respectively.
On to `O=C(Oc1ccc(C2(c3ccc(OC(=O)c4ccc(C(=O)O)c(C(=O)O)c4)cc3)c3ccccc3-c3ccccc32)cc1)c1ccc(C(=O)O)c(C(=O)O)c1` [BDF4, 4,4'-[4,4'-(9H-fluorene-9,9-diyl)-bis(4,1-phenylene)]-bis(oxy)-bis(oxomethylene)diphthalic acid], for which, at HUSpm_K35T (HUSpm_K35T vs wild type, DS24a), the “Decrease of the IC50 value as compared to wild type HUSpm” value was “about threefold decrease”. Also, the IC50 was 1.8 ± 0.3 µM on HUSpm_K35T (read-out: IC50 against HUSpm mutant HUSpm_K35T, EMSA with DS24a, mean ± SD from three runs, 30 nM protein); 6.3 ± 1 µM at HUSpm_R57A; 5 ± 0.6 µM at HUMgal (setting [5]); 5.9 ± 0.9 µM at HUSpm_K80A; 6.3 ± 1.2 µM on HUSpm_K88A; 5.6 ± 0.8 µM at HUSpm (read-out: IC50, half-maximal inhibitory concentration of HUSpm-DNA complex formation, EMSA with DS24a duplex, average±SD from three runs). Also, the “Effect of other mutations (F14A, F29A, F31A) on sensitivity to inhibitor” value in [1] is recorded as “did not cause any significant effects”. Moreover, the MIC in the data set on S. melliferum KC3 (Spiroplasma melliferum, KC3, read-out: MIC, minimal inhibitory concentration) was in the range of 40 to 70 µM (≈ 29.4 to 51.4 µg/mL); in the data set with M. gallisepticum S6 (Mycoplasmoides gallisepticum, S6, read-out: MIC, minimal inhibitory concentration), 40 to 70 µM (≈ 29.4 to 51.4 µg/mL). Moreover, in data set [2], the Solubility entry was “water solubility”.
`O=C(O)c1cccc(C(=O)Oc2ccc(C3(c4ccc(OC(=O)c5cccc(C(=O)O)c5)cc4)c4ccccc4-c4ccccc43)cc2)c1` [BDF6, 3.3′-[4.4′-(9H-fluorene-9.9-diyl)-bis(4.1-phenylene)]-bis(oxy)-bis(oxomethylene)-dibenzoic acid]: the IC50 in [3] (IC50, inhibition of HUEc DNA-binding, EMSA with DS24a, average ± SD from three runs) was 10 ± 1.3 µM; in data set [3] (IC50 given in figure, HUEc DNA binding, DS24a, representative result of one independent assay) it was 9.5 µM; on HUMgal (DS24a, representative result of one independent assay, read-out: IC50 given in figure, HUMgal DNA binding), 8.2 µM; at HUMgal (setting [5]) it was 8.1 ± 1 µM; at HUSpm (IC50, half-maximal inhibitory concentration of HUSpm-DNA complex formation, EMSA with DS24a duplex, average±SD from three runs), 8.2 ± 1.1 µM; on HUSpm (IC50 given in figure, HUSpm-DNA binding, DS24a, representative result of one independent assay), 8.7 µM. Moreover, the “MIC, minimal inhibitory concentration” value in the data set on S. melliferum KC3 and with M. gallisepticum S6 was “worst MIC” throughout. Moreover, the Solubility result in data set [2] is listed as “limited solubility”.
As to `CSCCC(NS(=O)(=O)c1ccc2c(c1)C(=O)c1cc(S(=O)(=O)NC(CCSC)C(=O)O)ccc1-2)C(=O)O` (stereo not shown) [compound 3], the IC50 on HUSpm (setting [7]) was more than 100 µM.
Regarding “AGTCTAGAGTGCAAGTTGAGTCCTT / AAGGACTCAACTGCACTCTAGACT [DS24a (24a)]”, the Kd (in general, the free concentration of one partner at which half of the binding sites on the other are occupied at equilibrium, for simple one-to-one binding) in data set [4] amounted to 0.0026 µM.
Same read-out and setting: under “AGTCTAGAGTGCAGTTGAGTCCTTGCTACGACGGATCCCTTAGGTCAG (double strand) [DS48 (48)]” stands 0.0186 µM.
Still for that read-out and setting: under “AGTCTAGAGTGCAGTTGAGTCCTTGCTACGACGGATCCCTTAGGTCAG / AAGGACTCAACTGCACTCTAGACT / CTGACCTAAGGGATCCGTCGTAG [Nick (N)]” stands 0.0052 µM.
The same measure, in the same setting: under “AGTCTAGAGTGCAGTTGAGTCCTTGCTACGACGGATCCCTTAGGTCAG / CTGACCTAAGGGATCCGTCGTAGCAAGAAAAAAAGACTCAACTGCACTCTAGACT [A7 bulge (A7)]” stands 0.002 µM; under “AGTCTAGAGTGCAGTTGAGTCCTTGCTACGACGGATCCCTTAGGTCAG / CTGACCTAAGGGATCCGTCGTAGCAAGAGACTCAACTGCACTCTAGACT [A1 bulge (A1)]”, 0.0025 µM.
